The data set in a line: coupled proteolysis-cGMP elevation bioassay with protease inhibitors. The format is in vitro ADME, human.
The mark [1] stands for this setting: Fig. 2B, 30 min, 37 °C, human kidney membranes, 293-GC-A cells, n=4.

B-type natriuretic peptide [BNP]: under setting [1], the “effect of leupeptin on degradation” value is on record as “completely blocked the degradation” and the “effect of phosphoramidon on degradation” value was “failed to preserve the activity”. In addition, under “Fig. 2B, 30 min, 37 °C, 293-GC-A cells, n=4”, the “effect of boiling the membranes before peptide exposure” value was “blocked inactivation”.

In the case of C-type natriuretic peptide [CNP], the “effect of boiling the membranes prior to peptide exposure” value (Fig. 2A, 30 min, 37 °C, boiled human kidney membranes, n=8) is “abolished membrane-dependent inactivation”. Further, the “effect of actinonin together with phosphoramidon” value (Fig. 2A, 30 min, 37 °C, human kidney membranes, n=8) is “did not further increase activity above that seen with phosphoramidon alone”. Under “Fig. 2A, NEP inhibitor phosphoramidon, 30 min, 37 °C, human kidney membranes, n=8”, the “activity loss blocked by phosphoramidon” value is “about 40%”. In addition, under “Fig. 2A, meprin inhibitor actinonin, 30 min, 37 °C, human kidney membranes, n=8”, the “effect of actinonin alone on inactivation” value was “did not block inactivation”. Besides, the “effect of leupeptin on inactivation” value (Fig. 2A, serine-threonine-cysteine protease inhibitor leupeptin, 30 min, 37 °C, human kidney membranes, n=8) was “did not statistically increase the bioactivity”. Besides, the “increase of bioactivity on inhibition of NEP in kidney membranes” value (phosphoramidon, human kidney membranes, 30 min, 37 °C (Fig. 2A)) amounted to 8 fold.

Turning to Dendroaspis natriuretic peptide [DNP], under “Fig. 2C, 120 min, 37 °C, human kidney membranes, human GC-A read-out, n=4”, the “activity in the presence of phosphoramidon” value is “significantly less than control values”.

The record behind these values is publication PMC4855506 (Journal of molecular and cellular cardiology, 2011).
